ChEMBL document CHEMBL5375957, “Optimization of Novel α7 Nicotinic Acetylcholine Receptor Positive Allosteric Modulators and the Discovery of a Preclinical Development Candidate Molecule (RGH-560)” (J Med Chem, 2023)
Values after ≈ are worked out from the molar mass of the structure shown. Active and inactive are the calls of the source. The calls are words filed in the database; no cut-off is given here.

Tests used:
[1] = Drug concentration in NMRI mouse brain at 3 mg/kg, ip measured after 1 hr by HPLC-MS/MS analysis; format: ADME, organism-based; settings: read-out: Ct
[2] = Metabolic stability in human liver microsome assessed as intrinsic clearance measured per mg of protein incubated for 40 mins; format: ADME; settings: liver microsomes, read-out: CLH
[3] = Drug concentration in NMRI mouse plasma at 1 mg/kg, ip measured after 1 hr by HPLC-MS/MS analysis; format: ADME, organism-based
[4] = Drug concentration in NMRI mouse brain at 1 mg/kg, ip measured after 1 hr by HPLC-MS/MS analysis; format: ADME, organism-based; settings: read-out: Ct
[5] = Ratio of drug concentration in brain to plasma in NMRI mouse plasma at 3 mg/kg, ip measured after 1 hr by HPLC-MS/MS analysis; format: ADME, organism-based
[6] = target: Neuronal acetylcholine receptor subunit alpha-7 (Homo sapiens, UniProt P36544); assay: Positive allosteric modulator activity at human alpha7 nAChR expressed in Flp-In HEK293 cells assessed as increase in calcium influx incubated for 10 mins by fluorescence based analysis; format: cell-based
Sequence of Neuronal acetylcholine receptor subunit alpha-7 (P36544 whole entry): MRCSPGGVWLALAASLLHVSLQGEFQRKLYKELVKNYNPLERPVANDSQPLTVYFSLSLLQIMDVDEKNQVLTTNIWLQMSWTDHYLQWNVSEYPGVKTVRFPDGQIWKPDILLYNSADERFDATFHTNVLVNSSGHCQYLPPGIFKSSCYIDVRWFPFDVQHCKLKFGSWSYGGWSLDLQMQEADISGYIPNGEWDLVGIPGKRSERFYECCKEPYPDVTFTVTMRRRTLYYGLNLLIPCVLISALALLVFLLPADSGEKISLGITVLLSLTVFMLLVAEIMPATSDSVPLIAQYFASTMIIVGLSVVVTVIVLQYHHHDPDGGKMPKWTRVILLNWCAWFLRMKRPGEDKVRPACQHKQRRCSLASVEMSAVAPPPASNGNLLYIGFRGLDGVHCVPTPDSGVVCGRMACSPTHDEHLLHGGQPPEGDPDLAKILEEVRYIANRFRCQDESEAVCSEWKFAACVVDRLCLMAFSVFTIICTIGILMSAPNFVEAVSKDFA

[7] = Drug concentration in NMRI mouse plasma at 3 mg/kg, ip measured after 1 hr by HPLC-MS/MS analysis; format: ADME, organism-based
[8] = Drug concentration in NMRI mouse plasma at 10 mg/kg, ip measured after 1 hr by HPLC-MS/MS analysis; format: ADME, organism-based
Mus musculus [9] = assay: Cognitive activity in scopolamine induced amnesia NMRI mouse model assessed as recognition index at 1 to 10 mg/kg, ip pretreated with compound for 30 mins followed by scopolamine induction by Y maze test; format: functional, organism-based; settings: dose 1-10 mg/kg
[10] = Ratio of drug concentration in brain to plasma in NMRI mouse plasma at 10 mg/kg, ip measured after 1 hr by HPLC-MS/MS analysis; format: ADME, organism-based
[11] = Kinetic solubility of compound at pH 7.4 incubated for 2 hrs by UV-HPLC analysis; format: physicochemical; settings: buffer, read-out: Kinetic_solubility
[12] = Metabolic stability in Wistar rat liver microsome assessed as intrinsic clearance measured per mg of protein incubated for 40 mins; format: ADME; settings: liver microsomes, read-out: CLH
[13] = Drug concentration in NMRI mouse brain at 10 mg/kg, ip measured after 1 hr by HPLC-MS/MS analysis; format: ADME, organism-based; settings: read-out: Ct
[14] = Metabolic stability in NMRI mouse liver microsome assessed as intrinsic clearance measured per mg of protein incubated for 40 mins; format: ADME; settings: liver microsomes, read-out: CLH
[15] = Ratio of drug concentration in brain to plasma in NMRI mouse plasma at 1 mg/kg, ip measured after 1 hr by HPLC-MS/MS analysis; format: ADME, organism-based
[16] = Toxicity in NMRI mouse assessed as effect on locomotor activity at 30 mg/kg, ip; format: organism-based; settings: in vivo
Mus musculus [17] = assay: Cognitive activity in scopolamine induced amnesia ip dosed NMRI mouse model assessed as minimum effective dose pretreated with compound for 30 mins followed by scopolamine induction; format: functional; settings: 0.5 h
[18] = Metabolic stability in human Hepatocyte assessed as intrinsic clearance measured per million cells incubated for 40 mins; format: ADME, cell-based; settings: hepatocytes, read-out: CLH
[19] = Apparent permeability in human Caco2 cells at 10 uM; format: ADME, cell-based; settings: Caco-2
[20] = Efflux ratio of apparent permeability in human Caco-2 cells at 10 uM; format: ADME, cell-based
[21] = target: Voltage-gated inwardly rectifying potassium channel KCNH2 (Homo sapiens, UniProt Q12809); assay: Inhibition of hERG transfected in CHO cells at -80 mV holding potential by automated patch clamp assay; format: toxicity, cell-based
Sequence of Voltage-gated inwardly rectifying potassium channel KCNH2 (Q12809 whole entry): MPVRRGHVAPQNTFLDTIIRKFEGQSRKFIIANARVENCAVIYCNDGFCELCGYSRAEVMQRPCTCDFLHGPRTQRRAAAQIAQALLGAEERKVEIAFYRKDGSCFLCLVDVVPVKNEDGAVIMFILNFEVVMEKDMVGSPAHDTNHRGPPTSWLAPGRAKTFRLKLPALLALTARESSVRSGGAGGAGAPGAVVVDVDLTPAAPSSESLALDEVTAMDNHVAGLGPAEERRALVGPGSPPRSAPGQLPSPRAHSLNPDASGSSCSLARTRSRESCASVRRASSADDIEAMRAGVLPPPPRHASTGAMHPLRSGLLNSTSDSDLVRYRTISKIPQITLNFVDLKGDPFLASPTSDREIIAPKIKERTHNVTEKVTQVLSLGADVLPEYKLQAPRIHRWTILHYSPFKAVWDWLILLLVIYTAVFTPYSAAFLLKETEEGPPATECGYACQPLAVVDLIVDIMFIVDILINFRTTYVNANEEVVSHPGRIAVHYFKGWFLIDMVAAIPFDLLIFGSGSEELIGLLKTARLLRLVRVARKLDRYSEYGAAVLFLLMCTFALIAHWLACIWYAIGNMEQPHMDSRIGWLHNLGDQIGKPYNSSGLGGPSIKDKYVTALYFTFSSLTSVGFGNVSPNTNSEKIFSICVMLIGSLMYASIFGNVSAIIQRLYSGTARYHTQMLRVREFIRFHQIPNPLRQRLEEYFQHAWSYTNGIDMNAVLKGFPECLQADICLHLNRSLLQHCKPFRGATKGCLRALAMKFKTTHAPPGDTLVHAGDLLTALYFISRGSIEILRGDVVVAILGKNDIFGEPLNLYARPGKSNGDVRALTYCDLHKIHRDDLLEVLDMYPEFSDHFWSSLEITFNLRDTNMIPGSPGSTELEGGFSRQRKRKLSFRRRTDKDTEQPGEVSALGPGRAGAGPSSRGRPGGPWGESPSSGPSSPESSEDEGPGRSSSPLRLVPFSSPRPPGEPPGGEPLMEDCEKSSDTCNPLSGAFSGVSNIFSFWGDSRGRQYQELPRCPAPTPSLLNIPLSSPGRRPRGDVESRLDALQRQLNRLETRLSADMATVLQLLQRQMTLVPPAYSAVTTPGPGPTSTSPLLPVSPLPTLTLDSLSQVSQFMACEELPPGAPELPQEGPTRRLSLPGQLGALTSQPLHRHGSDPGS

SMILES | concentration at 1 h [1] [ng/g] | microsomal CLint [2] [µL/min/mg] | concentration at 1 h [3] [ng/mL] | concentration at 1 h [4] [ng/g] | Kp at 1 h [5] | EC50 [6] [nM] | concentration at 1 h [7] [ng/mL] | concentration at 1 h [8] [ng/mL] | Activity (Mus musculus [9]) | Kp at 1 h [10] | solubility kinetic at 2 h [11] [µM] | microsomal CLint [12] [µL/min/mg] | concentration at 1 h [13] [ng/g] | microsomal CLint [14] [µL/min/mg] | Kp at 1 h [15] | MED (Mus musculus [17]) [mg/kg] | also measured
Cn1ccc2cc(CNC(=O)N3CC(COc4ccc(C(F)(F)F)cc4)C3)cnc21 | 174 | 17 | 179 | 46.8 | 0.25 | 200 | 689 | 2090 | Active | 0.22 | 2.5 (≈ 1.05 µg/mL) | 77 | 438 | 123 | 0.26 |  | 
Cn1ccc2cc(CNC(=O)N3CC4(CC(=O)c5ccc(F)cc5O4)C3)ccc21 | 78.5 | 13 | 107 | 29 | 0.3 |  | 262 | 2050 | Active | 0.31 | 46 (≈ 18.1 µg/mL) | 30 | 248 | 49 | 0.27 | 10 | Activity [16]: Non-Toxic; hepatocyte CLint [18]: 10.3 µL/min/1e6 cells
O=C(NCc1ccc2[nH]ccc2c1)N1CC(COc2ccc(C(F)(F)F)c(F)c2)C1 | 678 | 39 | 167 | 201 | 1.12 | 85 | 610 | 4230 | Active | 0.66 | 14.2 (≈ 5.98 µg/mL) | 44 | 2810 | 36 | 1.2 | 3 | Papp at 10 µM [19]: 63 ×10⁻⁶ cm/s; efflux ratio at 10 µM [20]: 1.3; IC50 [21]: 10000 nM
